Test results taken from ChEMBL document CHEMBL1149685, “Novel tethers in ketolide antibiotics” (2007).
Converted amounts (≈) assume the structure as drawn. The source made the active and inactive calls. The calls are words filed in the database; no cut-off is given here.

Key:
Format in all cases: functional
Streptococcus pneumoniae [1] = assay: Protection against erythromycin-resistant Streptococcus pneumoniae 1095 infection in po dosed mouse after 4 days
Streptococcus pyogenes [2] = assay: Antibacterial activity against erythromycin-resistant Streptococcus pyogenes 1068 in mouse soft tissue infection model assessed as reduction in bacterial count at 100 mg/kg, po after 24 hrs
Streptococcus pneumoniae [3] = assay: Antibacterial activity against erythromycin-resistant ermB expressing Streptococcus pneumoniae 1095
Streptococcus pneumoniae [4] = assay: Antibacterial activity against erythromycin-resistant mef expressing Streptococcus pneumoniae 1175
Streptococcus pyogenes [5] = assay: Antibacterial activity against erythromycin-resistant ermB expressing Streptococcus pyogenes 1079
Haemophilus influenzae [6] = assay: Antimicrobial activity against Haemophilus influenzae 1325
Haemophilus influenzae [7] = assay: Antibacterial activity against Haemophilus influenzae 1100 in po dosed gerbils
[8] = Streptococcus pneumoniae, read-out: MIC

In the case of `CC[C@H]1OC(=O)[C@@](C)(F)C(=O)[C@H](C)[C@@H](O[C@@H]2O[C@H](C)C[C@H](N(C)C)[C@H]2O)[C@](C)(OC)C[C@@H](C)C(=O)[C@H](C)[C@H]2N(CNC(=O)OCc3ccc4nccnc4c3)C(=O)O[C@]12C`, the PD50 (Streptococcus pneumoniae [1]) is reported as 71.2 mg/kg, the Log10 cfu (Streptococcus pyogenes [2]) is reported as 2.3 and the MIC (Streptococcus pneumoniae [3]; [8]) is reported as less than 0.063 µg/mL. It also gave an MIC (Streptococcus pneumoniae [4]) of less than 0.063 µg/mL, an MIC (Streptococcus pyogenes [5]) of 1 µg/mL (≈ 1.18 µM) and an MIC (Haemophilus influenzae [6]) of 2 µg/mL (≈ 2.36 µM). For the same compound, the ED50 (Haemophilus influenzae [7]) was 39.5 mg/kg.
In the case of `CC[C@H]1OC(=O)[C@H](C)C(=O)[C@H](C)[C@@H](O[C@@H]2O[C@H](C)C[C@H](N(C)C)[C@H]2O)[C@](C)(OC)C[C@@H](C)C(=O)[C@H](C)[C@H]2N(CCNC(=O)OCc3cnc4ccccc4c3)C(=O)O[C@]12C`, the MIC (Streptococcus pneumoniae [3]) is reported as greater than 64 µg/mL, the MIC (Streptococcus pneumoniae [4]) is reported as 0.125 µg/mL (≈ 0.149 µM) and the MIC (Streptococcus pyogenes [5]) is reported as greater than 64 µg/mL. The MIC (Haemophilus influenzae [6]) was 32 µg/mL (≈ 38 µM).
`CC[C@H]1OC(=O)[C@H](C)C(=O)[C@H](C)[C@@H](O[C@@H]2O[C@H](C)C[C@H](N(C)C)[C@H]2O)[C@](C)(OC)C[C@@H](C)C(=O)[C@H](C)[C@H]2N(CNC(=O)NCc3ccc4nccnc4c3)C(=O)O[C@]12C` gave an MIC (Streptococcus pneumoniae [3]; [8]) of less than 0.063 µg/mL, an MIC (Streptococcus pneumoniae [4]) of 0.25 µg/mL (≈ 0.302 µM) and an MIC (Streptococcus pyogenes [5]) of 2 µg/mL (≈ 2.42 µM). For the same compound, the MIC (Haemophilus influenzae [6]) was 2 µg/mL (≈ 2.42 µM).
`CC[C@H]1OC(=O)[C@H](C)C(=O)[C@H](C)[C@@H](O[C@@H]2O[C@H](C)C[C@H](N(C)C)[C@H]2O)[C@](C)(OC)C[C@@H](C)C(=O)[C@H](C)[C@H]2N(CNC(=O)OCc3ccc4cccnc4c3)C(=O)O[C@]12C` gave an MIC (Streptococcus pneumoniae [3]; [8]) of less than 0.063 µg/mL, an MIC (Streptococcus pneumoniae [4]) of less than 0.063 µg/mL and an MIC (Streptococcus pyogenes [5]) of 64 µg/mL (≈ 77.4 µM). The MIC (Haemophilus influenzae [6]) was 4 µg/mL (≈ 4.84 µM).
In the case of `CC[C@H]1OC(=O)[C@H](C)C(=O)[C@H](C)[C@@H](O[C@@H]2O[C@H](C)C[C@H](N(C)C)[C@H]2O)[C@](C)(OC)C[C@@H](C)C(=O)[C@H](C)[C@H]2N(CNC(=O)NCc3ccc4ncccc4c3)C(=O)O[C@]12C`, the MIC (Streptococcus pneumoniae [3]; [8]) is reported as 0.25 µg/mL (≈ 0.303 µM), the MIC (Streptococcus pneumoniae [4]) is reported as 0.125 µg/mL (≈ 0.151 µM) and the MIC (Streptococcus pyogenes [5]) is reported as 4 µg/mL (≈ 4.84 µM). It also gave an MIC (Haemophilus influenzae [6]) of 1 µg/mL (≈ 1.21 µM).
For `CC[C@H]1OC(=O)[C@@](C)(F)C(=O)[C@H](C)[C@@H](O[C@@H]2O[C@H](C)C[C@H](N(C)C)[C@H]2O)[C@](C)(OC)C[C@@H](C)C(=O)[C@H](C)[C@H]2N(CNC(=O)OCc3cccc4nccnc34)C(=O)O[C@]12C`, the MIC (Streptococcus pneumoniae [3]; [8]) was less than 0.063 µg/mL, the MIC (Streptococcus pneumoniae [4]) was less than 0.063 µg/mL and the MIC (Streptococcus pyogenes [5]) was 22.6 µg/mL (≈ 26.7 µM). The MIC (Haemophilus influenzae [6]) was 4 µg/mL (≈ 4.73 µM).
`CC[C@H]1OC(=O)[C@H](C)C(=O)[C@H](C)[C@@H](O[C@@H]2O[C@H](C)C[C@H](N(C)C)[C@H]2O)[C@](C)(OC)C[C@@H](C)C(=O)[C@H](C)[C@H]2N(CNC(=O)NCc3ccc4cccnc4c3)C(=O)O[C@]12C` showed an MIC (Streptococcus pneumoniae [3]; [8]) of less than 0.063 µg/mL, an MIC (Streptococcus pneumoniae [4]) of 0.5 µg/mL (≈ 0.605 µM) and an MIC (Streptococcus pyogenes [5]) of 64 µg/mL (≈ 77.5 µM). For the same compound, the MIC (Haemophilus influenzae [6]) was 4 µg/mL (≈ 4.84 µM).
Work on `CC[C@H]1OC(=O)[C@H](C)C(=O)[C@H](C)[C@@H](O[C@@H]2O[C@H](C)C[C@H](N(C)C)[C@H]2O)[C@](C)(OC)C[C@@H](C)C(=O)[C@H](C)[C@H]2N(CNC(=O)OCc3ccc4ncccc4c3)C(=O)O[C@]12C` yielded an MIC (Streptococcus pneumoniae [3]; [8]) of 0.25 µg/mL (≈ 0.302 µM), an MIC (Streptococcus pneumoniae [4]) of less than 0.063 µg/mL and an MIC (Streptococcus pyogenes [5]) of 8 µg/mL (≈ 9.67 µM). The MIC (Haemophilus influenzae [6]) was 2 µg/mL (≈ 2.42 µM).
`CC[C@H]1OC(=O)[C@@](C)(F)C(=O)[C@H](C)[C@@H](O[C@@H]2O[C@H](C)C[C@H](N(C)C)[C@H]2O)[C@](C)(OC)C[C@@H](C)C(=O)[C@H](C)[C@H]2N(CNC(=O)NCc3ccc4nccnc4c3)C(=O)O[C@]12C` showed an MIC (Streptococcus pneumoniae [3]; [8]) of less than 0.063 µg/mL, an MIC (Streptococcus pneumoniae [4]) of less than 0.063 µg/mL and an MIC (Streptococcus pyogenes [5]) of 1 µg/mL (≈ 1.18 µM). For the same compound, the MIC (Haemophilus influenzae [6]) was 1 µg/mL (≈ 1.18 µM).
In the case of `CC[C@H]1OC(=O)[C@H](C)C(=O)[C@H](C)[C@@H](O[C@@H]2O[C@H](C)C[C@H](N(C)C)[C@H]2O)[C@](C)(OC)C[C@@H](C)C(=O)[C@H](C)[C@H]2N(CCNC(=O)NCc3cnc4ccccc4c3)C(=O)O[C@]12C`, the MIC (Streptococcus pneumoniae [3]; [8]) is reported as greater than 64 µg/mL, the MIC (Streptococcus pneumoniae [4]) is reported as 0.5 µg/mL (≈ 0.595 µM) and the MIC (Streptococcus pyogenes [5]) is reported as greater than 64 µg/mL. The MIC (Haemophilus influenzae [6]) was 16 µg/mL (≈ 19 µM).
Work on `CC[C@H]1OC(=O)[C@H](C)C(=O)[C@H](C)[C@@H](O[C@@H]2O[C@H](C)C[C@H](N(C)C)[C@H]2O)[C@](C)(OC)C[C@@H](C)C(=O)[C@H](C)[C@H]2N(CNC(=O)OCc3ccc4nccnc4c3)C(=O)O[C@]12C` yielded an MIC (Streptococcus pneumoniae [3]; [8]) of less than 0.063 µg/mL, an MIC (Streptococcus pneumoniae [4]) of less than 0.063 µg/mL and an MIC (Streptococcus pyogenes [5]) of 16 µg/mL (≈ 19.3 µM). The MIC (Haemophilus influenzae [6]) was 2 µg/mL (≈ 2.42 µM).
`CC[C@H]1OC(=O)[C@H](C)C(=O)[C@H](C)[C@@H](O[C@@H]2O[C@H](C)C[C@H](N(C)C)[C@H]2O)[C@](C)(OC)C[C@@H](C)C(=O)[C@H](C)[C@H]2N(CNC(=O)NCc3cnc4ccccc4n3)C(=O)O[C@]12C` gave an MIC (Streptococcus pneumoniae [3]; [8]) of less than 0.063 µg/mL, an MIC (Streptococcus pneumoniae [4]) of 0.25 µg/mL (≈ 0.302 µM) and an MIC (Streptococcus pyogenes [5]) greater than 64 µg/mL. For the same compound, the MIC (Haemophilus influenzae [6]) was 4 µg/mL (≈ 4.84 µM).
`CC[C@H]1OC(=O)[C@H](C)C(=O)[C@H](C)[C@@H](O[C@@H]2O[C@H](C)C[C@H](N(C)C)[C@H]2O)[C@](C)(OC)C[C@@H](C)C(=O)[C@H](C)[C@H]2N(CNC(=O)OCc3cnc4ccccc4n3)C(=O)O[C@]12C` showed an MIC (Streptococcus pneumoniae [3]; [8]) of 0.25 µg/mL (≈ 0.302 µM), an MIC (Streptococcus pneumoniae [4]) of 0.25 µg/mL (≈ 0.302 µM) and an MIC (Streptococcus pyogenes [5]) greater than 64 µg/mL. For the same compound, the MIC (Haemophilus influenzae [6]) was 8 µg/mL (≈ 9.66 µM).
`CC[C@H]1OC(=O)[C@H](C)C(=O)[C@H](C)[C@@H](O[C@@H]2O[C@H](C)C[C@H](N(C)C)[C@H]2O)[C@](C)(OC)C[C@@H](C)C(=O)[C@H](C)[C@H]2N(CNC(=O)OCc3ccnc4ccccc34)C(=O)O[C@]12C` was tested, and the MIC (Streptococcus pneumoniae [3]; [8]) was 0.5 µg/mL (≈ 0.605 µM), the MIC (Streptococcus pneumoniae [4]) was less than 0.063 µg/mL and the MIC (Streptococcus pyogenes [5]) was 64 µg/mL (≈ 77.4 µM). The MIC (Haemophilus influenzae [6]) was 8 µg/mL (≈ 9.67 µM).
`CC[C@H]1OC(=O)[C@H](C)C(=O)[C@H](C)[C@@H](O[C@@H]2O[C@H](C)C[C@H](N(C)C)[C@H]2O)[C@](C)(OC)C[C@@H](C)C(=O)[C@H](C)[C@H]2N(CNC(=O)OCc3cccc4ncccc34)C(=O)O[C@]12C` gave an MIC (Streptococcus pneumoniae [3]; [8]) of 0.125 µg/mL (≈ 0.151 µM), an MIC (Streptococcus pneumoniae [4]) of 0.125 µg/mL (≈ 0.151 µM) and an MIC (Streptococcus pyogenes [5]) of 16 µg/mL (≈ 19.3 µM). For the same compound, the MIC (Haemophilus influenzae [6]) was 32 µg/mL (≈ 38.7 µM).
In the case of `CC[C@H]1OC(=O)[C@H](C)C(=O)[C@H](C)[C@@H](O[C@@H]2O[C@H](C)C[C@H](N(C)C)[C@H]2O)[C@](C)(OC)C[C@@H](C)C(=O)[C@H](C)[C@H]2N(CCCCn3cnc(-c4cccnc4)c3)C(=O)O[C@]12C` [TELITHROMYCIN], the PD50 (Streptococcus pneumoniae [1]) is reported as 71.5 mg/kg, the Activity (Streptococcus pyogenes [2]) is reported as “inactive” and the MIC (Streptococcus pneumoniae [3]; [8]) is reported as less than 0.063 µg/mL. It also gave an MIC (Streptococcus pneumoniae [4]) of 0.378 µg/mL (≈ 0.466 µM), an MIC (Streptococcus pyogenes [5]) of 18 µg/mL (≈ 22.2 µM) and an MIC (Haemophilus influenzae [6]) of 3.9 µg/mL (≈ 4.8 µM). It also gave an ED50 (Haemophilus influenzae [7]) of 27.5 mg/kg.
Work on `CC[C@H]1OC(=O)[C@H](C)C(=O)[C@H](C)[C@@H](O[C@@H]2O[C@H](C)C[C@H](N(C)C)[C@H]2O)[C@](C)(OC)C[C@@H](C)C(=O)[C@H](C)[C@H]2N(CNC(=O)Nc3cnc4ccccc4c3)C(=O)O[C@]12C` yielded an MIC (Streptococcus pneumoniae [3]; [8]) of 0.25 µg/mL (≈ 0.308 µM), an MIC (Streptococcus pneumoniae [4]) of less than 0.063 µg/mL and an MIC (Streptococcus pyogenes [5]) greater than 64 µg/mL. The MIC (Haemophilus influenzae [6]) was 16 µg/mL (≈ 19.7 µM).
`CC[C@H]1OC(=O)[C@H](C)C(=O)[C@H](C)[C@@H](O[C@@H]2O[C@H](C)C[C@H](N(C)C)[C@H]2O)[C@](C)(OC)C[C@@H](C)C(=O)[C@H](C)[C@H]2N(CNC(=O)NCc3cncc4ccccc34)C(=O)O[C@]12C` was tested, and the MIC (Streptococcus pneumoniae [3]; [8]) was less than 0.063 µg/mL, the MIC (Streptococcus pneumoniae [4]) was less than 0.063 µg/mL and the MIC (Streptococcus pyogenes [5]) was 16 µg/mL (≈ 19.4 µM). For the same compound, the MIC (Haemophilus influenzae [6]) was 4 µg/mL (≈ 4.84 µM).
`CC[C@H]1OC(=O)[C@H](C)C(=O)[C@H](C)[C@@H](O[C@@H]2O[C@H](C)C[C@H](NC)[C@H]2O)[C@](C)(OC)C[C@@H](C)C(=O)[C@H](C)[C@H]2N(CNC(=O)OCc3cnc4ccccc4c3)C(=O)O[C@]12C` gave an MIC (Streptococcus pneumoniae [3]; [8]) of less than 0.063 µg/mL, an MIC (Streptococcus pneumoniae [4]) of less than 0.063 µg/mL and an MIC (Streptococcus pyogenes [5]) of 64 µg/mL (≈ 78.7 µM). It also gave an MIC (Haemophilus influenzae [6]) of 8 µg/mL (≈ 9.84 µM).
